From patent US20100130425A1, “USE OF TOLL-LIKE RECEPTOR LIGANDS IN TREATING EXCITOTOXIC INJURY, ISCHEMIA AND/OR HYPOXIA” (Oregon Health & Science University, priority 2005, published 2010)

Assays:
[1] = test system: mouse cortical neuronal cultures
Protocol: In vitro mouse neuronal cultures: Cortical neuronal cultures were prepared as described Jin et al. (Neurochem. Res. 27:1105-1112, 2002) from E-16 mouse pups (C57B1/6, Jackson labs). Briefly, cortices were dissected and separated from meninges, olfactory bulbs, basal ganglia and hippocampi, and the cortices digested in 0.05% trypsin-EDTA for 15 min at 37° C. Cells were triturated and single cell suspension was plated at density of 5×10^5 cells/ml. Cells were cultured in Neurobasal A medium (Invitrogen, Carlsbad) containing 2% B27, 2 mM Glutamate. Neuronal enrichment was determined by staining for neurons, microglia and astrocytes with cell specific markers.
In vitro neuronal ischemia model: Neuronal cultures were treated with varying doses of an exemplary CpG oligonucleotide (SEQ ID NO: 1) in Neurobasal-A media supplemented with 1% Glutamax 24 hours prior to 3 hours oxygen-glucose-deprivation (OGD) treatment. OGD was performed by replacing medium with PBS containing 0.5 mM CaCl2 and 5 mM MgCl2, pH 7.4, and then placing the neuronal cultures in an anaerobic chamber (Form a Scientific) containing an atmosphere of 85% N2, 5% H2, 10% CO2 maintained at 35° C. Following OGD-treatment (3 hours), PBS was replaced with Minimum Essential Medium (MEM) and the cells returned to normoxic conditions. Percent neuronal cell death was determined by propidium iodide staining in two different fields of view in duplicate, compared to total DAPI staining in identical fields.
In vitro neuronal ischemia model: Neuronal cultures were treated with varying doses (0.1 μg/ml and 1 μg/ml) of Gardiquimod in Neurobasal-A media supplemented with 1% Glutamax 24 hours prior to 3 hours oxygen-glucose-deprivation (OGD) treatment. OGD was performed and cells analyzed as described in Example 1.
OGD was performed and cell analyzed as described in Example 1.

human TLR9 = molecular target: T1, human TLR9 (Homo sapiens, UniProt Q9NR96); test: NF-κB inducible SEAP reporter in 293-hTLR9 cells; type: cell-based; details: 5 μM, 18 hours; hydrolysis of pNpp at 405 nm
T1 construct: host or cells: HEK293 (293-hTLR9)
T1 sequence (Q9NR96 26-1032): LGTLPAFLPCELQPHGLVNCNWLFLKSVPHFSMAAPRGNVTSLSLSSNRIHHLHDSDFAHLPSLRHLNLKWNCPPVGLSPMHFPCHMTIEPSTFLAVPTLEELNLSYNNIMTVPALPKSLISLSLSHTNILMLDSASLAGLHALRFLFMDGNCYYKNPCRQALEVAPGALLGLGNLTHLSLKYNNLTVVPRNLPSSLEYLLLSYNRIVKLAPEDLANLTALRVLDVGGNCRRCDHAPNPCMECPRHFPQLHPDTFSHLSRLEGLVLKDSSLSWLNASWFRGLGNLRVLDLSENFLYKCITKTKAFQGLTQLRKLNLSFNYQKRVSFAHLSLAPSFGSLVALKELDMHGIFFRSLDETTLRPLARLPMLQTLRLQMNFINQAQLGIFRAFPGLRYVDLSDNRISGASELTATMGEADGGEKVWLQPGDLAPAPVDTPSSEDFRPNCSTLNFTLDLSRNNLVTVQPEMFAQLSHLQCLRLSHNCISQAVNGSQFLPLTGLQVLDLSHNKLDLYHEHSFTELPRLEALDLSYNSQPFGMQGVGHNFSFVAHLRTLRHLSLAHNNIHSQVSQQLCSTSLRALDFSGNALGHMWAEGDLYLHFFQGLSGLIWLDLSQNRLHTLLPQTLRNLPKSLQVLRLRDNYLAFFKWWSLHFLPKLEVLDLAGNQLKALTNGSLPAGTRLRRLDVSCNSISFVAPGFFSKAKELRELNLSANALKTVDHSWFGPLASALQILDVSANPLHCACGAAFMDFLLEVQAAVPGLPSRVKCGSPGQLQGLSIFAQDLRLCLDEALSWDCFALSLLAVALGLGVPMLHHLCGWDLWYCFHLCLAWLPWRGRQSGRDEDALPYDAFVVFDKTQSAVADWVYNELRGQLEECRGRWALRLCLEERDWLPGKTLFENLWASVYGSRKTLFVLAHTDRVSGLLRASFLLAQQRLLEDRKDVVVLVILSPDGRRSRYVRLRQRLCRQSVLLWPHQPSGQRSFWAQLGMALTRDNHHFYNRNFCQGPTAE
Protocol: FIG. 3 is a bar graph illustrating NF-κB induction following in vitro treatment with an exemplary CpG oligonucleotide. 293-hTLR9 cells transfected with an NFκB inducible reporter plasmid (pNifty2-SEAP) were treated with CpG (5 μM). NFκB induction of alkaline phosphatase expression is indicated as hydrolysis of pNpp at 405 nm.
Human embryonic kidney cell line HEK293 was transfected with an expressible nucleic acid encoding human TLR9 and with an NFκB reporter construct (InvivoGen). The dual transfected cells were incubated with a 5 μM CpG oligonucleotide (SEQ ID NO: 1) for 18 hours.

[2] = test system: mice subjected to middle cerebral artery occlusion (MCAO); test: In vivo ischemic/reperfusion model (MCAO), mouse model of stroke
Protocol: Ischemic/Reperfusion Model. […] Mice were anesthetized by halothane inhalation (4%/L O2) and maintained with 1.5%/L O2. The middle cerebral artery was blocked by a silicone-coated 8-0 monofilament nylon surgical suture that was threaded through the external carotid to the internal carotid and finally blocks the bifurcation into the MCA and anterior cerebral artery. The filament was maintained intraluminally for 45 min and then removed, thereby restoring blood flow. Cerebral blood flow (CBF) was monitored throughout the surgery by laser Doppler flowmetry (Periflow 5000; Perimed, Sweden). During and 2 hours following surgery, body temperatures was kept constant at 37° C. with a heating pad controlled by a thermostat. Body weights were monitored prior to and following MCAO.
Infarct calculations. […] Perfused brains were placed on a tissue slicer and sectioned into 1 mm thick coronal slices.

[3] = cited from earlier work
[4] = test system: mice subjected to bilateral renal ischemia; test: In vivo model of renal ischemia (bilateral renal clamping), serum creatinine; set-up: species or system mouse; details: 48 hours prior to bilateral renal clamping (45 minutes); 48 hours following reperfusion
Protocol: Intraperitoneal Delivery: Preconditioning agent Poly I:C (25 μg) in artificial saline or saline alone (control) was administered intraperitoneally to subject mice 72 hours prior to middle cerebral artery occlusion (MCAO; 45 minutes) as described in Example 3 or 48 hours prior to bilateral renal clamping (45 min).
Creatinine levels: To assess renal injury due to the ischemia, creatinine levels were measured 48 hours following reperfusion as follows. Mice were treated with saline or poly I:C (1.6 mg/kg; sc) 48 hrs prior to renal ischemia. Just prior to surgery blood was collected via the saphenous vien for baseline determination of creatinine levels. Bilateral ischemia was induced as follows: mice were anesthestized with 3% isoflurane and maintained at 1.5-2% throughout surgery. A midline incision was made and both kidneys exteriorized and clamps placed on the artery and veins of each kidney for 45 minutes. After ischemia, the clamps were withdrawn inducing reperfusion and the incision sutured up. Mice were euthanized 48 hr post initiation of reperfusion and blood collected. Serum levels of creatinine were determined via a commercially available immunoassay.

[5] = test system: mouse cortical neuronal cultures; test: In vitro neuronal ischemia model, treatment after OGD; type: cell-based; details: 1 to 100 μg/ml after 3 hours OGD; analyzed 24 hours later
Protocol: In vitro neuronal ischemia model: Neuronal cultures were exposed to 3 hours oxygen-glucose-deprivation (OGD) treatment as described in Example 1. After OGD, cells were treated with 1 to 100 μg/ml Poly I:C. 24 hours later cells were analyzed as described in Example 1.

TNF-α = test: Serum TNF-α in mice, immunoassay; type: in vivo, mouse; details: 1 mg/kg, 2 hours prior to serum collection
Protocol: (§1) Mice were injected with saline, CpG (0.8 mg/kg) LPS (0.4 mg/kg) or Poly I:C (1 mg/kg) 2 hours prior to serum collection. Levels of TNF-α and IFN-β were measured using commercially available immunoassay kits.

IFN-β = test: Serum IFN-β in mice, immunoassay; type: in vivo, mouse; details: 1 mg/kg, 2 hours prior to serum collection; versus CpG 0.8 mg/kg and LPS 0.4 mg/kg
Protocol: as §1

[6] = 0.2-1.6 mg/kg subcutaneous 72 hours prior to 60 minutes MCAO, 24 hours post MCAO

5′-tccatgacgttcctgacgtt-3′ [CpG oligonucleotide (SEQ ID NO: 1)]
neuroprotection against oxygen-glucose deprivation (percent neuronal cell death) ([1]; treated 24 hours prior to 3 hours OGD, propidium iodide staining): confers neuroprotection against oxygen-glucose deprivation | NFκB induction of alkaline phosphatase expression (human TLR9): produced alkaline phosphatase | percent infarct, time course of preconditioning ([2]; 20 μg administered between 72 and 24 hours prior to MCAO): peak preconditioning | percent infarct, time course of preconditioning ([2]; 20 μg administered up to a week prior to MCAO): significant preconditioning | percent infarct ([2]; intraperitoneal, 72 hours prior to 45 min MCAO): percent infarct was significantly decreased

CCOCc1nc2c(N)nc3ccccc3c2[nH]1 [CL097]
water solubility [3]: ≥ 20 mg/mL

CCNCc1nc2c(N)nc3ccccc3c2n1CC(C)(C)O [Gardiquimod]
neuroprotection against oxygen-glucose deprivation (% cell death) ([1]; 0.1 or 1 μg/ml 24 hours prior to OGD (3 hours), propidium iodide staining 24 hours following OGD): confers neuroprotection against oxygen-glucose deprivation | percent infarct (% of hemisphere with infarction) ([2]; 0.2-1.6 mg/kg 72 hours prior to 60 minutes MCAO, TTC staining 24 hours later): percent infarct was significantly decreased in a dose-dependent fashion | focal neurological deficit [2, 6]: reduced neurological deficits | general neurological deficit [2, 6]: reduced neurological deficits

CC(C)Cn1cnc2c(N)nc3ccccc3c21 [imiquimod]
infarct size ([2]; mouse, in vivo, ip): protects against cell death

CCOCc1nc2c(N)nc3ccccc3c2n1CC(C)(C)O [resiquimod]
infarct size ([2]; 0.8 mg/kg s.c. 72 hours prior to MCAO, 24 hours following MCAO): provides neuroprotection against cerebral ischemia

lipopolysaccharide [LPS]
infarct size (neuroprotection) ([2]; mouse, in vivo, 0.4 mg/kg): no considerable neuroprotection

polyinosinic polycytidylic acid [Poly I:C]
cell death without exposure to OGD ([1]; highest dose, no OGD): did not induce cell death | neuroprotection against oxygen-glucose deprivation (cell death by PI staining) ([1]; mixed cortical cultures, increasing doses 24 hours prior to OGD): induces neuroprotection against oxygen-glucose deprivation | serum creatinine levels (renal injury) [4]: reduced the injury to baseline levels | neuroprotection, treatment after oxygen-glucose deprivation [5]: induces neuroprotection | serum TNFα levels (TNF-α): increases TNFα levels | serum IFNβ levels (IFN-β): produces significantly more IFNβ than stimulation of TLR9 or TLR4 | percent infarct ([2]; 25 μg intraperitoneally 72 hours prior to 45 minutes MCAO, TTC 72 hours following surgery): percent infarct was significantly decreased
